Patent publication US11999736B1, “Pyrazino[2′,1′:2,3]imidazo[4,5-b][1,7]naphthyridines compounds as CK2 inhibitors” (KING FAISAL UNIVERSITY, priority 2023, dated 2024)

Experiments:
[1] = tested on: PC3 (prostate) cancer cell line; assay: In vitro cytotoxic activity MTT assay, PC3; type: cell-based; conditions: Homo sapiens, PC3 (prostate) cells, exposed for 96 hours, read-out: IC50, concentration of compound eliciting a 50% inhibition of cell proliferation
Method: (§1) Compounds 1-16 were screened for their in vitro cytotoxic activity utilizing a 3-(4,5-dimethyl-thiazol-2-yl)-2,5-diphenyltetrazolium bromide (MTT) assay against selected cancer human cell lines consisting of PC3 (prostate), HCT116 (colon), A375 (melanoma), H1299 (lung), MIAPaCa-2 (pancreas), HL60 (leukemia), MCF7 (breast), MDA-MB-231 (breast) (T. Mosmann, J. Immunol. Meth., 1983, 65, 55-63). The cells were cultured at 37° C. in RMPI1640 medium supplemented with 10% fetal bovine serum, 50 IU/mL penicillin, and 50 μg/mL streptomycin in a 5% CO2 incubator. All cells were sub-cultured 3 times/week by trypsinisation. Viable cells were seeded and allowed to adhere for 12 h before a test drug was added in 96-well plates at an initial density of 1.0×10^5 cells/mL. Tumor cell lines were separately exposed to various concentrations of the tested compounds followed by incubation at a temperature of 37° C. during 96 hours inside a medium of fresh RMPI 1640. Cells were subsequently incubated at 37° C. using MTT at 0.5 mg/mL during 4 hours. After removal of supernatant, formazan crystals were dissolved in isopropanol and the optical density was measured at 570 nm. CX-4945 was used as a positive control.

[2] = tested on: HCT116 (colon) cancer cell line; assay: In vitro cytotoxic activity MTT assay, HCT116; type: cell-based; conditions: Homo sapiens, HCT-116; HCT116 (colon) cells, exposed for 96 hours; read-out: IC50, concentration of compound eliciting a 50% inhibition of cell proliferation
Method: as §1

[3] = tested on: A375 (melanoma) cancer cell line; assay: In vitro cytotoxic activity MTT assay, A375; type: cell-based; conditions: Homo sapiens, A-375; A375 (melanoma) cells, exposed for 96 hours; read-out: IC50, concentration of compound eliciting a 50% inhibition of cell proliferation
Method: as §1

[4] = tested on: H1299 (lung) cancer cell line; assay: In vitro cytotoxic activity MTT assay, H1299; type: cell-based; conditions: Homo sapiens, NCI-H1299; H1299 (lung) cells, exposed for 96 hours; read-out: IC50, concentration of compound eliciting a 50% inhibition of cell proliferation
Method: as §1

[5] = tested on: MIAPaCa-2 (pancreas) cancer cell line; assay: In vitro cytotoxic activity MTT assay, MIAPaCa-2; type: cell-based; conditions: Homo sapiens, MIA PaCa-2; MIAPaCa-2 (pancreas) cells, exposed for 96 hours; read-out: IC50, concentration of compound eliciting a 50% inhibition of cell proliferation
Method: as §1

[6] = tested on: HL60 (leukemia) cancer cell line; assay: In vitro cytotoxic activity MTT assay, HL60; type: cell-based; conditions: Homo sapiens, HL-60; HL60 (leukemia) cells, exposed for 96 hours; read-out: IC50, concentration of compound eliciting a 50% inhibition of cell proliferation
Method: as §1

[7] = tested on: MCF7 (breast) cancer cell line; assay: In vitro cytotoxic activity MTT assay, MCF7; type: cell-based; conditions: Homo sapiens; MCF7 (breast) cells, exposed for 96 hours; read-out: IC50, concentration of compound eliciting a 50% inhibition of cell proliferation
Method: as §1

[8] = tested on: MDA-MB-231 (breast) cancer cell line; assay: In vitro cytotoxic activity MTT assay, MDA-MB-231; type: cell-based; conditions: Homo sapiens; MDA-MB-231 (breast) cells, exposed for 96 hours; read-out: IC50, concentration of compound eliciting a 50% inhibition of cell proliferation
Method: as §1

[9] = target: T1, recombinant human CK2 (holoenzyme) (Homo sapiens, UniProt P68400); assay: CK2 Kinase Assay (radiometric, [γ-33P] ATP); type: biochemical; conditions: final ATP concentration 15 μM, 10 min at 30° C., eight concentrations; read-out: protein kinase CK2 inhibition IC50
T1 construct: purchased Millipore
T1 sequence (P68400 whole entry): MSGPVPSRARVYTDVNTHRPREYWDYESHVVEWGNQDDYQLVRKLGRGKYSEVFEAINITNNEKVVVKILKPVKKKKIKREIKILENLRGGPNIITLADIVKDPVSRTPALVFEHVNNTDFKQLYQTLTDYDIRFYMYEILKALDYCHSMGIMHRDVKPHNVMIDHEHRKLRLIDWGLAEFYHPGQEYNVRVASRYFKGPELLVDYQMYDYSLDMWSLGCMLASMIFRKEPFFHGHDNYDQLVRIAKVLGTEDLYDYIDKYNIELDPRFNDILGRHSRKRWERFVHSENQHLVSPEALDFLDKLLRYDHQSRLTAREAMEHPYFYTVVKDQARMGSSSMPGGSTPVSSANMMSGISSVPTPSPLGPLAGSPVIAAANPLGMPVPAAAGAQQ
T1 sequence (P67870 whole entry partner): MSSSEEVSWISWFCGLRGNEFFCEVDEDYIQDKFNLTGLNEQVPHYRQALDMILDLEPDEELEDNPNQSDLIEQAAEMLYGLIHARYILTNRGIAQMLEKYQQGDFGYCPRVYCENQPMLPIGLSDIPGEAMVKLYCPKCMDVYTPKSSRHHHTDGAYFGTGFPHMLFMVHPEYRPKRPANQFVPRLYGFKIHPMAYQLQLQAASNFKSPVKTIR
Method: CK2 Kinase Assay was conducted using the protocol as described in Pierre F. et al; J. Med. Chem. 2011, 54, 635-654. The tested compounds in aqueous solution were added at a volume of 10 μL to a reaction mixture comprising 10 μL of assay dilution buffer (ADB; 20 mM MOPS, pH 7.2, 25 mM P-glycerol phosphate, 5 mM EGTA, 1 mM sodium orthovanadate, and 1 mM dithiothreitol), 10 μL of substrate peptide (RRRDDDSDDD, dissolved in ADB at a concentration of 1 mM), 10 μL of recombinant human CK2 (RROP-holoenzyme, 25 ng dissolved in ADB; Millipore). Reactions were initiated by the addition of 10 μL of ATP solution (90% 75 mMMgCl2, 75 μM ATP (final ATP concentration:15 μM) dissolved in ADB; 10% [γ-33P] ATP (stock 1mCi/100 μL; 3000 Ci/mmol (Perkin-Elmer) and maintained for 10 min at 30° C. The reactions were quenched with 100 μL of 0.75% phosphoric acid and then transferred to and filtered through a phosphor cellulose filter plate (Millipore). After washing each well five times with 0.75% phosphoric acid, the plate was dried under vacuum for 5 min and, following the addition of 15 μL of scintillation fluid to each well, the residual radioactivity was measured using a Wallac luminescence counter. The IC50 values were derived from eight concentrations of test inhibitors.

Compound: Clc1cccc(Nc2c3ccncc3nc3c2nc2cnccn23)c1 [Compound 1, N-(3-chlorophenyl)pyrazino[2′,1′:2,3]imidazo[4,5-b][1,7]naphthyridin-11-amine]
- IC50 [1]: 1.9 µM
- IC50 [2]: 1.4 µM
- IC50 [3]: 3.2 µM
- IC50 [4]: 2.9 µM
- IC50 [5]: 1.1 µM
- IC50 [6]: 2.8 µM
- IC50 [7]: 6.3 µM
- IC50 [8]: 5 µM
- IC50 [9]: 0.092 µM
